How the values were obtained:
[1] = tested on: osteoblast cell line MC3T3-E1; assay: Fatty acid compositional analysis of osteoblasts; format: cell-based
Protocol: (§1) Experiments are conducted to determine how SDA treatment of osteoblast-like cells in culture influence the polyunsaturated fatty acid (PUFA) composition. The osteoblast cell line MC3T3-E1 is cultured in growth medium (GM) consisting of DMEM supplemented with 10% fetal bovine serum (FBS), ascorbic acid, β-glycerol-phosphate, and 1% antimicrobial solution. The cells are plated in 24-well plates at a density of 1.2×10^4 cells per ml for 3 days until confluent. Once confluent, corresponding to the initialization of the osteoblastic phenotype, the medium is either changed for SDA or […] (LNA) treatment or cultured further in GM until subjected to the various treatments. At the end of the 3 day fatty acid treatment period, cultures are exposed to agents that induce COX-2 expression. The two agents utilized are forskolin (FSK) and interleukin-1 (IL-1). These agents are selected on the basis of their respective actions on the COX-2 gene. Forskolin, an activator of adenylate cyclase, increases cyclic-AMP (cAMP) concentrations. Interleukin-1, itself a bone resorption agent binding to its receptor on the cellular membrane, launches a cascade resulting in the activation of the transcription factor nuclear-factor κ-B (NFκB). Cyclic-AMP and NFκB both activate the expression of the COX-2 gene. Cyclic-AMP activates the expression of the COX-2 gene via the cAMP-response element binding protein (CREBP), which binds to the cAMP response element (CRE) in the COX-2 promoter. The COX-2 promoter also contains an NFκB binding element.
Fatty Acid Compositional Analysis of Osteoblasts. Osteoblast cells exposed to the PUFA treatments (SDA and LNA) are subjected to a gas chromotographic analysis of the FAME from extracted lipids of washed cells.

[2] = tested on: Alkaline phosphatase (ALP) activity in osteoblast cells MC3T3-E1; assay: Alkaline phosphatase (ALP) activity, method of Lowry; format: cell-based; conditions: all time points evaluated; relative to linolenic acid
Protocol: as §1, with “Cyclic-AMP activates the expression of the COX-2 gene via the cAMP-response element binding protein (CREBP), which binds to the cAMP response element (CRE) in the COX-2 promoter. The COX-2 promoter also contains an NFκB binding element.” left out
Enzyme activity: Alkaline phosphatase (ALP) activity is determined by the method of Lowry.

[3] = Beagle feeding study, diets supplemented with SDA or linolenic acid; format: in vivo, beagles; conditions: dogs, low essential fatty acid diet 90 days
Description: Experiments are also designed to evaluate the effect of SDA on the pet, such as a dog or cat. As an example, beagles are provided with a low essential fatty acid diet for a period of 90 days. Diets supplemented with SDA or linolenic acid are provided for the subsequent 30 days.

[4] = tested on: other cell cultures; assay: Omega-3 fatty acid concentrations in other cell cultures; format: cell-based; conditions: compared with linolenic acid (18:3n-3)
[5] = tested on: PGE2 production in osteoblasts; assay: PGE2 formation in osteoblasts (enzyme immunoassay); format: cell-based
Protocol: as §1, with “Interleukin-1, itself a bone resorption agent binding to its receptor on the cellular membrane, launches a cascade resulting in the activation of the transcription factor nuclear-factor κ-B (NFκB). Cyclic-AMP and NFκB both activate the expression of the COX-2 gene. Cyclic-AMP activates the expression of the COX-2 gene via the cAMP-response element binding protein (CREBP), which binds to the cAMP response element (CRE) in the COX-2 promoter. The COX-2 promoter also contains an NFκB binding element.” left out
Western Blot. […] Optical density is determined using Optimus image analyzing software (version 6.1). […]
PGE2 Formation. In the experiments, already detailed in the section on Western blotting, PGE2 levels in the medium of induced and non-induced cells are determined using an enzyme immunoassay kit (Cayman Chemical, Ann Arbor, Mich.).

[6] = then supplemented diet 30 days, compared to linolenic acid diet

PGE2 production in osteoblasts [5]: attenuate PGE2 production
Structure (SMILES): CC/C=C\C/C=C\C/C=C\C/C=C\CCCCC(=O)O [SDA, 6Z, 9Z, 12Z, 15Z-octadecatetraenoic acid]
concentrations of total omega-3 fatty acid in osteoblasts ([1]; SDA at increasing treatment levels): increased concentrations
22:5n-3 in osteoblasts ([1]; SDA treatment of osteoblasts): particularly elevates
EPA in osteoblasts ([1]; SDA treatment of osteoblasts): particularly elevates
activity of alkaline phosphatase [2]: highest activity
arachidonic acid in plasma and liver ([3]; then SDA supplemented diet 30 days): trend of decreased arachidonic acid
concentrations of 22:5n-3 in red blood cell membranes, plasma, and liver tissue [3, 6]: elevated concentrations
concentrations of EPA in red blood cell membranes, plasma, and liver tissue [3, 6]: elevated concentrations
altering the concentrations of omega-3 fatty acid [4]: more effective

Source: patent US20090143468A1, “PET FOOD COMPOSITIONS AND METHODS” (priority 2004, published 2009)
